Data as given in patent US7009045B2 (priority 2000, dated 2006).

Tests used:
[1] = system: Candida famata regulatory mutants able to overproduce riboflavin; assay: Sensitivity to Co^+2 ions, solid Burkholder medium (Table 16); type: cell-based; set-up: key: +++: strong growth; ++: weak growth; —: absence of growth
Procedure: The sensitivity of the regulatory mutants of the yeast C. famata which overproduce riboflavin in iron rich medium probably due to defects in genes regulating repression (repression mutants), to different ions of heavy metals was studied. For this, the analyzed strains were streaked on the YPD plates and then were replica-plated on Burkholder synthetic medium containing leucine (40 μg/ml). The C.famata mutants L20105-40-1-11, L20105-40-1-17, L20105-3-2-1, L20105-3-2-8 and L20105-3-2-12 (all contained leu2 marker) accumulated 80–100 μg riboflavin/ml. The mutants #75, 4-48, 2-5 produced much higher amounts of riboflavin (200–250 μg/ml) but were prototrophs for leucine synthesis. Strain #75 was characterized by retarded growth comparing with other mutants. The strains VKM Y-9 (wild type) and L20105 (leu2) were used as the control strains.

[2] = system: Pichia guilliermondii wild type and regulatory mutants (rib81); assay: Sensitivity after electroporation to K2Cr2O7, medium with 0.5% glycerol (Table 21); type: cell-based; set-up: key: +++: strong growth; ++: weak growth; +: very weak growth; —: absence of growth; details: #9-20 (leu2); K2Cr2O7 125 μM
Source text: The possibility for positive selection of P. guilliermondii rib81 transformants unable to overproduce riboflavin in minimal medium was studied. For this, the toxicity of K2Cr2O7 (Cr^+6) was compared for the P. guilliermondii wild-type strain ATCC 9058 and regulatory mutants P. guilliermondii rib81 9-20 and 20-2. The cells were pregrown in liquid YPD to OD 1.5–2.0 (540 nm) and electroporated according to the protocol described (Example 34). Electroporated cells were washed three times with 10×volume of 0.6 M KCl and then the volume was adjusted to 1 ml. Then the cells were plated at 0.2 ml suspension per plate which contained 0.5% glycerol, 0.6 M KCl and K2Cr2O7 (50–1000 μM).
The visual selection of the non-overproducing riboflavin transformants is rather arbitrary and uncertain. Therefore it was decided to develop the method for positive selection of the transformants using tentative differences in sensitivity to K2Cr2O7 of wild-type P. guilliermondii and the regulatory mutants rib81 9-20 and 20-2. After 6 days of cultivation in the medium with 0.5% glycerol, it was shown that K2Cr2O7 at 150–180 μM inhibited growth of regulatory mutant 9-20 more strongly than that of the wild strain (Table 21).

Measured: growth

[Cl-].[Cl-].[Co+2] [CoCl2]
+++: [1]; #2-5, Co^+2 1.25 μg/ml | [1]; #4-48, Co^+2 1.25 μg/ml | [1]; L20105 (leu2), Co^+2 1.25 μg/ml | [1]; L20105 (leu2), Co^+2 2.5 μg/ml | [1]; L20105 (leu2), Co^+2 3.75 μg/ml | [1]; L20105 (leu2), Co^+2 5.0 μg/ml | [1]; L20105 (leu2), Co^+2 6.25 μg/ml | [1]; L20105 (leu2), Co^+2 7.5 μg/ml | [1]; L20105 (leu2), Co^+2 8.75 μg/ml | [1]; L20105 (leu2), Co^+2 10 μg/ml | [1]; L20105-3-2-1, Co^+2 1.25 μg/ml | [1]; L20105-3-2-8, Co^+2 1.25 μg/ml | [1]; L20105-3-2-9, Co^+2 1.25 μg/ml | [1]; L20105-3-2-12, Co^+2 1.25 μg/ml | [1]; L20105-40-1-11, Co^+2 1.25 μg/ml | [1]; VKM Y-9, Co^+2 1.25 μg/ml | [1]; VKM Y-9, Co^+2 2.5 μg/ml | [1]; VKM Y-9, Co^+2 3.75 μg/ml | [1]; VKM Y-9, Co^+2 5.0 μg/ml | [1]; VKM Y-9, Co^+2 6.25 μg/ml | [1]; VKM Y-9, Co^+2 7.5 μg/ml | [1]; VKM Y-9, Co^+2 8.75 μg/ml | [1]; VKM Y-9, Co^+2 10 μg/ml | [1]; VKM Y-9, Co^+2 11.25 μg/ml | [1]; VKM Y-9, Co^+2 12.5 μg/ml
—: [1]; #2-5, Co^+2 5.0 μg/ml | [1]; #2-5, Co^+2 6.25 μg/ml | [1]; #2-5, Co^+2 7.5 μg/ml | [1]; #2-5, Co^+2 8.75 μg/ml | [1]; #2-5, Co^+2 10 μg/ml | [1]; #2-5, Co^+2 11.25 μg/ml | [1]; #2-5, Co^+2 12.5 μg/ml | [1]; #4-48, Co^+2 3.75 μg/ml | [1]; #4-48, Co^+2 5.0 μg/ml | [1]; #4-48, Co^+2 6.25 μg/ml | [1]; #4-48, Co^+2 7.5 μg/ml | [1]; #4-48, Co^+2 8.75 μg/ml | [1]; #4-48, Co^+2 10 μg/ml | [1]; #4-48, Co^+2 11.25 μg/ml | [1]; #4-48, Co^+2 12.5 μg/ml | [1]; #75, Co^+2 3.75 μg/ml | [1]; #75, Co^+2 5.0 μg/ml | [1]; #75, Co^+2 6.25 μg/ml | [1]; #75, Co^+2 7.5 μg/ml | [1]; #75, Co^+2 8.75 μg/ml | [1]; #75, Co^+2 10 μg/ml | [1]; #75, Co^+2 11.25 μg/ml | [1]; #75, Co^+2 12.5 μg/ml | [1]; L20105-3-2-1, Co^+2 5.0 μg/ml | [1]; L20105-3-2-1, Co^+2 6.25 μg/ml | [1]; L20105-3-2-1, Co^+2 7.5 μg/ml | [1]; L20105-3-2-1, Co^+2 8.75 μg/ml | [1]; L20105-3-2-1, Co^+2 10 μg/ml | [1]; L20105-3-2-1, Co^+2 11.25 μg/ml | [1]; L20105-3-2-1, Co^+2 12.5 μg/ml | [1]; L20105-3-2-8, Co^+2 6.25 μg/ml | [1]; L20105-3-2-8, Co^+2 7.5 μg/ml | [1]; L20105-3-2-8, Co^+2 8.75 μg/ml | [1]; L20105-3-2-8, Co^+2 10 μg/ml | [1]; L20105-3-2-8, Co^+2 11.25 μg/ml | [1]; L20105-3-2-8, Co^+2 12.5 μg/ml | [1]; L20105-3-2-9, Co^+2 5.0 μg/ml | [1]; L20105-3-2-9, Co^+2 6.25 μg/ml | [1]; L20105-3-2-9, Co^+2 7.5 μg/ml | [1]; L20105-3-2-9, Co^+2 8.75 μg/ml | [1]; L20105-3-2-9, Co^+2 10 μg/ml | [1]; L20105-3-2-9, Co^+2 11.25 μg/ml | [1]; L20105-3-2-9, Co^+2 12.5 μg/ml | [1]; L20105-3-2-12, Co^+2 6.25 μg/ml | [1]; L20105-3-2-12, Co^+2 7.5 μg/ml | [1]; L20105-3-2-12, Co^+2 8.75 μg/ml | [1]; L20105-3-2-12, Co^+2 10 μg/ml | [1]; L20105-3-2-12, Co^+2 11.25 μg/ml | [1]; L20105-3-2-12, Co^+2 12.5 μg/ml | [1]; L20105-40-1-11, Co^+2 5.0 μg/ml | [1]; L20105-40-1-11, Co^+2 6.25 μg/ml | [1]; L20105-40-1-11, Co^+2 7.5 μg/ml | [1]; L20105-40-1-11, Co^+2 8.75 μg/ml | [1]; L20105-40-1-11, Co^+2 10 μg/ml | [1]; L20105-40-1-11, Co^+2 11.25 μg/ml | [1]; L20105-40-1-11, Co^+2 12.5 μg/ml
++: [1]; #2-5, Co^+2 2.5 μg/ml | [1]; #4-48, Co^+2 2.5 μg/ml | [1]; #75, Co^+2 1.25 μg/ml | [1]; L20105 (leu2), Co^+2 11.25 μg/ml | [1]; L20105 (leu2), Co^+2 12.5 μg/ml | [1]; L20105-3-2-1, Co^+2 2.5 μg/ml | [1]; L20105-3-2-8, Co^+2 2.5 μg/ml | [1]; L20105-3-2-9, Co^+2 2.5 μg/ml | [1]; L20105-3-2-12, Co^+2 2.5 μg/ml | [1]; L20105-40-1-11, Co^+2 2.5 μg/ml

[K+].[K+].[O]=[Cr](=[O])([O-])[O][Cr](=[O])(=[O])[O-] [K2Cr2O7]
+: [2]
